This is an account of results in article PMC9732439, “Biochemical and in silico inhibition of bovine and human carbonic anhydrase-II by 1H-1,2,3-triazole analogs” (Frontiers in Chemistry, 2022).

Test [1] addresses T1, hCA-II (Homo sapiens, UniProt P00918). The test is described as follows: In vitro carbonic anhydrase inhibition assay (p-NPA, spectrophotometric), hCA-II. The class given is biochemical. As to conditions: for hCA-II IC50 ± S.E.M. / IC50: human CA-II, substrate p-NPA, triplicate; for IC50: read-out: hCA-II IC50 ± S.E.M.; for Selectivity for hCA-II: hCA-II versus bCA-II.
Test [2] has as its target T2, bCA-II (Bos taurus, UniProt P00921). The test is described as follows: In vitro carbonic anhydrase inhibition assay (p-NPA, spectrophotometric), bCA-II. The class given is biochemical, bovine. As to conditions: for IC50 / bCA-II IC50 ± S.E.M.: bovine CA-II, substrate p-NPA, 15 min at 25°C, triplicate; for IC50: read-out: bCA-II IC50 ± S.E.M. How it is done: Total assay volume comprises 140 µl of HEPES-Tris buffer, 20 µl of bCA-II solution (0.1 mg/ml HEPES-Tris buffer), 20 µl of the test compound (prepared in DMSO), and 20 µl p-NPA (0.7 mM, methanol). First, the test compound and enzyme were incubated for 15 min at 25°C; after incubation, in quick sequence, substrate was added to each experiment in 96-well plates, which were placed in the ^xMARK microplate spectrophotometer (Bio-Rad, United States), and the absorbance was set to 400 nm with 1 min interval time. The activity of the controlled compound was taken as 100%.

Test [3] addresses T1, hCA-II. Put plainly: Kinetics study against hCA-II. The format is biochemical. As to conditions: for Kmapp: Michaelis–Menten constant in the presence of inhibitor; for Vmaxapp: maximum velocity in the presence of inhibitor; for Ki: read-out: Ki ± SEM. On the procedure: (§1) Soon after the incubation, various concentrations of substrate were added to the reaction medium (01–0.8 mM). The enzyme activity was measured under steady-state conditions by observing changes in absorbance for 30 min at 400 nm on the microtiter plate reader (Bio-Rad X-Mark^Tm molecular spectrometer, United States). The results were analyzed and processed by Grafit 7 software (Erithacus Software Limited, United Kingdom). Different kinetic parameters of enzymes (e.g., Vmax, Km, Vmaxapp, and Kmapp) and values of correlation coefficients, intercepts, slopes, and their standard error mean were calculated by the linear regression graph by Grafit 7. Linear regression analysis was used to calculate the “best fit” line or curve through a dataset by minimizing the deviation of the data from the curve.

Test [4] addresses T2, bCA-II. The test is described as follows: Kinetics study against bCA-II. The class given is biochemical, bovine. As to conditions: for Kmapp: Michaelis–Menten constant in the presence of inhibitor; for Vmaxapp: maximum velocity in the presence of inhibitor; for Ki: read-out: Ki ± SEM. How it is done:
as §1

T2 sequence (P00921 whole entry): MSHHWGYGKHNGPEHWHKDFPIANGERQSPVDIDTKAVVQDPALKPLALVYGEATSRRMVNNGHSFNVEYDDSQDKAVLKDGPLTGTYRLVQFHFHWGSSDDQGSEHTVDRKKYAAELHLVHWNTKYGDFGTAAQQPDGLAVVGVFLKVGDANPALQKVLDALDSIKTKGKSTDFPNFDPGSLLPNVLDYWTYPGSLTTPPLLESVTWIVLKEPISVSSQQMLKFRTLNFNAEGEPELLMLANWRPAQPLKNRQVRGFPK

Turning to `COc1cc(-c2ccccc2)ccc1O[C@H](C)Cn1cc(-c2ccc(F)cc2)nn1` [Compound 9f], the “hCA-II IC50 ± S.E.M.” value in test [1] is “Inactive”. In addition, the IC50 (in general, the concentration that gives 50% inhibition) in test [2] was 88.4 ± 0.3 µM.
For the compound `COc1cc(-c2cc(C(F)(F)F)cc(C(F)(F)F)c2)ccc1O[C@H](C)Cn1cc(-c2ccc(F)cc2)nn1` [Compound 9m], the concentration for half-maximal inhibition (IC50) stood at 27.4 ± 0.9 µM in test [1] and 41 ± 0.4 µM in test [2].
For `COc1cc(-c2ccc(C=O)cc2)ccc1O[C@H](C)Cn1cc(-c2ccc(F)cc2)nn1` [Compound 9n], in that order: 23 ± 0.3 µM and 22.4 ± 0.4 µM.
For `COc1cc(-c2ccc(C)cc2)ccc1O[C@H](C)Cn1cc(-c2ccc(C(F)(F)F)cc2)nn1` [Compound 9a], in that order: 21 ± 1 µM and 25.7 ± 0.2 µM.
`COc1cc(-c2ccc(C(C)=O)cc2)ccc1O[C@H](C)Cn1cc(-c2ccc(F)cc2)nn1` [Compound 9r]: the “hCA-II IC50 ± S.E.M.” value in test [1] is reported as “Inactive”. Besides, in test [2] (bCA-II versus hCA-II), the “Selectivity for bCA-II” value is recorded as “selective inhibitors of bCA-II”. Further, the IC50 in test [2] is 29 ± 1 µM.
Regarding `COc1cc(-c2ccc(F)cc2)ccc1O[C@H](C)Cn1cc(-c2ccc(C(F)(F)F)cc2)nn1` [Compound 9d], the “hCA-II IC50 ± S.E.M.” value in test [1] was “Inactive”. Further, the concentration for half-maximal inhibition (IC50) in test [2] turned out to be 28.8 ± 0.4 µM.
Take `COc1cc(Br)ccc1O[C@H](C)Cn1cc(-c2ccc(C(F)(F)F)cc2)nn1` [Compound 7b]: the IC50 came to 45.1 ± 0.5 µM in test [1] and 20.6 ± 0.3 µM in test [2].
Take `COc1cc(-c2ccc3ccccc3c2)ccc1O[C@H](C)Cn1cc(-c2ccc(F)cc2)nn1` [Compound 9q]: the “hCA-II IC50 ± S.E.M.” value in test [1] was “Inactive”. For the same compound, in test [2], the “bCA-II IC50 ± S.E.M.” value is recorded as “Inactive”.
In the case of `COc1cc(-c2ccc(Cl)cc2)ccc1O[C@H](C)Cn1cc(-c2ccc(F)cc2)nn1` [Compound 9j], the concentration for half-maximal inhibition (IC50) in test [1] stood at 18.5 ± 0.4 µM. The “bCA-II IC50 ± S.E.M.” value in test [2] is “Inactive”.
For the compound `COc1cc(-c2ccc([N+](=O)[O-])cc2)ccc1O[C@H](C)Cn1cc(-c2ccc(F)cc2)nn1` [Compound 9i], in test [3], the Type of inhibition result is given as “competitive inhibition”; the Kmapp was 3.9 mM; the Vmaxapp is reported as 26.1 (µmol/min)^−1; the inhibition constant Ki (as a rule, the equilibrium dissociation constant of an inhibitor or competing ligand from its target) worked out at 8.1 ± 0.04 µM. Further, in test [4], the Type of inhibition entry is recorded as “competitive inhibition”, the Kmapp worked out at 5.6 mM, the Vmaxapp is given as 23.2 (µmol/min)^−1 and the Ki was 9.4 ± 0.3 µM. Besides, the IC50 in test [1] turned out to be 10.9 ± 1 µM. For the same compound, in test [2], the IC50 is 11.1 ± 0.2 µM.
Take `COc1cc(-c2ccc(C#N)cc2)ccc1O[C@H](C)Cn1cc(-c2ccc(F)cc2)nn1` [Compound 9k]: in test [1], the “Selectivity for hCA-II” value is given as “selective inhibitors of the hCA-II” and the concentration for half-maximal inhibition (IC50) is 21.3 ± 0.8 µM. Further, the “bCA-II IC50 ± S.E.M.” value in test [2] is listed as “Inactive”.
`COc1cc(-c2cc3ccccc3s2)ccc1O[C@H](C)Cn1cc(-c2ccc(F)cc2)nn1` [Compound 9s]: the “hCA-II IC50 ± S.E.M.” value in test [1] is listed as “Inactive”. Besides, the “bCA-II IC50 ± S.E.M.” value in test [2] was “Inactive”.
Regarding `COc1cc(Br)ccc1O[C@H](C)Cn1cc(-c2ccccc2)nn1` [Compound 7a], the figures for the half-inhibitory concentration (IC50) in test [1] and in test [2] were 35.3 ± 0.6 µM and 21.4 ± 0.1 µM, respectively.
For the compound `COc1cc(-c2ccccc2C(F)(F)F)ccc1O[C@H](C)Cn1cc(-c2ccc(C(F)(F)F)cc2)nn1` [Compound 9c], in test [1], the “Selectivity for hCA-II” value is given as “selective inhibitors of the hCA-II” and the IC50 worked out at 12.5 ± 0.6 µM. The “bCA-II IC50 ± S.E.M.” value in test [2] is listed as “Inactive”.
Consider `COc1ccc(-c2ccc(O[C@H](C)Cn3cc(-c4ccc(F)cc4)nn3)c(OC)c2)cc1` [Compound 9h], for which the “hCA-II IC50 ± S.E.M.” value in test [1] is “Inactive”. Besides, the IC50 in test [2] stood at 12.9 ± 1 µM.
Consider `COc1cc(-c2c(F)cccc2F)ccc1O[C@H](C)Cn1cc(-c2ccc(F)cc2)nn1` [Compound 9o], for which, in test [3], the Type of inhibition entry is given as “competitive inhibition”, the Kmapp is 4.2 mM, the Vmaxapp is given as 25.3 (µmol/min)^−1 and the inhibition constant (Ki) worked out at 6.5 ± 0.19 µM. In test [4], the Type of inhibition entry is “competitive inhibition”, the Kmapp came out at 4.9 mM, the Vmaxapp was 24.6 (µmol/min)^−1 and the Ki stood at 11.3 ± 0.17 µM. Further, the concentration for half-maximal inhibition (IC50) in test [1] came to 13.6 ± 1 µM. The IC50 in test [2] was 14.1 ± 0.2 µM.
As for `COC(=O)c1cn(C[C@@H](C)Oc2ccc(Br)cc2OC)nn1` [Compound 7d], the concentration for half-maximal inhibition (IC50) in test [1] turned out to be 25.1 ± 0.4 µM; in test [2] it was 12.3 ± 0.4 µM.
As to `COc1cc(-c2ccc(F)c(F)c2F)ccc1O[C@H](C)Cn1cc(-c2ccc(F)cc2)nn1` [Compound 9p], in test [1], the “Selectivity for hCA-II” value was “selective inhibitors of the hCA-II” and the IC50 worked out at 19.3 ± 0.2 µM. Also, the “bCA-II IC50 ± S.E.M.” value in test [2] was “Inactive”.
For the compound `COc1ccc(-c2ccc(O[C@H](C)Cn3cc(-c4ccc(C(F)(F)F)cc4)nn3)c(OC)c2)cc1` [Compound 9b], the concentration for half-maximal inhibition (IC50) in test [1] amounted to 22.4 ± 0.4 µM; in test [2], 39.1 ± 0.3 µM.
For `COc1cc(Br)ccc1O[C@H](C)Cn1cc(-c2ccc(F)cc2)nn1` [Compound 7c], in that order: 22.8 ± 0.2 µM and 20.4 ± 0.3 µM.
For the compound `COc1cc(-c2ccc(F)cc2)ccc1O[C@H](C)Cn1cc(-c2ccc(F)cc2)nn1` [Compound 9l], in test [1], the “hCA-II IC50 ± S.E.M.” value is “Inactive”. Moreover, the “bCA-II IC50 ± S.E.M.” value in test [2] is “Inactive”.
As for `COc1cc(-c2ccc(C)cc2)ccc1O[C@H](C)Cn1cc(-c2ccc(F)cc2)nn1` [Compound 9g], the “hCA-II IC50 ± S.E.M.” value in test [1] is on record as “Inactive”. In test [2], the IC50 stood at 16.4 ± 0.4 µM.
Take `COc1cc(-c2ccc([N+](=O)[O-])cc2)ccc1O[C@H](C)Cn1cc(-c2ccc(C(F)(F)F)cc2)nn1` [Compound 9e]: the “hCA-II IC50 ± S.E.M.” value in test [1] is given as “Inactive”. Also, the IC50 in test [2] is 17.8 ± 0.8 µM.
